Key:
[1] = test system: w.3 AMATU Amaranthus tuberculatus, tall waterhemp, PPO resistant biotype 2 that does not contain the ΔG210 mutation; assay type: in vivo; conditions: summary of Example 3 table
[2] = test system: w.2 AMATU Amaranthus tuberculatus, tall waterhemp, PPO resistant biotype 1 that does not contain the ΔG210 mutation; assay type: in vivo; conditions: summary of Example 3 table

C#CCN1C(=O)C(F)(F)Oc2cc(F)c(-n3c(=O)n(C)c(=S)n(C)c3=O)cc21 [I.a.35]
activity in words on PPO resistant weed w.3 [1]: very good activity
activity in words on PPO resistant weed w.2 [2]: very good activity
